Assays:
Female Wistar rats = assay: Lipopolysaccharide induced pulmonary neutrophilia in female Wistar rat model; type: in vivo; conditions: Neutrophil, oral gavage, 1 h before intratracheal LPS, BAL at 6 h, read-out: ED50, reduction of neutrophil infiltration into the lungs
Experimental: After the quarantine period, fasted animals were randomized and divided into various groups depending on their body weights. The test compound [Compound A1] was prepared as a suspension in a vehicle consisting of 0.5% methylcellulose in which Tween 80 as a suspending agent. The compound or vehicle was administered by oral gavage in a volume of 10 mL/kg. Female Wistar rats were anaesthetized with ketamine and LPS solution was administered intratracheally one hour after compound administration at a dose of 1 mg/kg. 6 h after LPS instillation, animals were exsanguinated under anaesthesia, and then trachea was cannulated and the lungs were lavaged with 5-ml aliquots of heparinised PBS (1 unit/ml) four times through tracheal cannula (total volume 20 ml). Bronchoalveolar lavage (BAL) fluid was been stored at 2-8° C. until assayed for total cell and differential leukocyte count. Bronchioalveolar fluid was centrifuged (500×g for 10 min) and the resulting cell pellet was resuspended in 0.5 ml of heparinised saline. The total numbers of white blood cells were determined in BAL fluid or blood by using a blood cell counter and was adjusted to 1×10^6 cell/ml. Differential cell count was calculated manually. […] The number of each cell type among 300 white blood cells in the cell smear was determined and expressed as a percentage. The number of eosinophil in each BALf or blood was calculated.

PI3K gamma = biological target: T1, PI3K gamma (Mus musculus, UniProt Q9JHG7); assay: c5a induced AktS473 phosphorylation in RAW 264.7 macrophages (PI3Kγ selectivity); type: cell-based; conditions: read-out: Cellular IC50 PI3K gamma (c5a induced pAKT in RAW macrophages)
T1 construct: endogenous in cells; host or cells: RAW 264.7 macrophages
Experimental: The objective of this study was to determine the effect of Compound A1 on PI3Kγ kinase mediated c5a induced AktS473 phosphorylation in RAW 264.7 macrophages. • RAW 264.7 cells were treated with desired concentrations of the test compound for 15 min. 1 ml of 2× c5a was added such that the final concentration was 50 ng/ml and incubated for 15 min. • Media was discarded and washed with 1 ml of ice-cold 1× PBS. • 250 μl of cell lysis buffer was added and incubated on ice for 30 min. • Samples were centrifuged and supernatant was stored at −80° C. until analysis • Samples were analyzed by Western Blotting using pAKT (S473) as the primary and anti-rabbit IgG-HRP as a secondary antibody. • Intensity of the bands was determined using ImageJ 1.42q (NIH, USA) and normalized to Actin (loading control). Data was plotted using GraphPad Prism (Version 5.02).

PI3K delta = biological target: T2, PI3K delta (Homo sapiens, UniProt O00329); assay: Anti-IgM induced B-cell proliferation (PI3Kδ selectivity); type: cell-based; conditions: read-out: Cellular IC50 PI3K delta (anti-IgM induced human B-cell proliferation)
T2 construct: Isolated B-cells were re-suspended to 1.0×10^6 cells per ml; endogenous in cells; host or cells: isolated human B cells
Experimental: The objective of this study was to assess the inhibitory potential of Compound A1 on anti-IgM induced human B-cell proliferation.
• Isolated B-cells were re-suspended to 1.0×10^6 cells per ml. 100 μl of cell suspension was added to each well of a 96-well plate. Triplicates were maintained. • 50 μl of drug dilution was added and mixed well. A DMSO blank and inducer blank were maintained. • Treated plate was incubated for 30 min at 37° C., 5% CO2 and then 50 μl of 4× inducer was added and mixed by pipetting. • Plate was incubated at 37° C., 5% CO2 for 72 h. • Media was aspirated and 150 μl of DMSO was added to dissolve the formazan crystals. • Absorbance was read at A560 and A640 nm.

Pi3K γ = Pi3K γ (Homo sapiens, UniProt P48736); assay: Fluorescent (HTRF) determination of PI3 kinase enzyme activity, gamma isoform; type: biochemical; parameters: purchased Millipore (assay kit); conditions: Table 1, HTRF; read-out: IC50 (nM) Pi3K γ
From the text: Phosphoinositide 3 kinases (PI3K) belong to a class of lipid kinases that play a critical role in the regulation of several key cellular processes. The PI3K are capable of phosphorylating the 3-hydroxy position of phosphoinositols thereby generating second messengers involved in downstream signalling events. The homogenous time resolved fluorescence (HTRF) assay allows detection of 3,4,5-triphosphate (PIP3) formed as a result of phosphorylation of phosphotidylinositol 4,5-biphosphate (PIP2) by PI3K isoforms such as α, β, γ or δ.
PI3K isoform activity for α, β, γ or δ was determined using a PI3K human HTRF™ Assay Kit (Millipore, Billerica, Mass.) with modifications. All incubations were carried out at room temperature. Briefly, 0.5 μl of 40× inhibitor (in 100% DMSO) or 100% DMSO were added to each well of a 384-well white plate (Greiner Bio-One, Monroe, N.C.) containing 14.5 μl 1× reaction buffer /PIP2 (10 mM MgCl2, 5 mM DTT, 1.38 μM PIP2) mix with or without enzyme, followed by 5 μl/well of 400 μM ATP and incubated for an additional 30 minutes. Reaction was terminated by adding 5 μl/well stop solution (Millipore, Billerica, Mass.). […] HRTF ratio was measured on a microplate reader (BMG Labtech., Germany) at an excitation wavelength of 337 nm and emission wavelengths of 665 and 615 nm with an integration time of 400 msec counting delay of 50 msec.

male guinea pigs = assay: Ovalbumin induced pulmonary eosinophilia in male guinea pigs; type: in vivo, guinea pig; conditions: sensitized guinea pigs, 0.3, 1, 3 mg/kg oral
Experimental: After the quarantine period, 0.3 mL of blood samples was collected from orbital vein by retro-orbital plexus method from each individual animal and analysed on a cell analyser (ADVIA 2120, Siemens). Based on their total cell count, guinea pigs were randomized and divided into various groups. Ear pinna was marked with an indelible marking pen for identification. On day 0, weights were recorded and animals were sensitized with 50 μg of Ovalbumin (OVA) and 10 mg of alum solution (1 mL) intraperitoneally. On day 7 and day 14, the above sensitization protocol was repeated. […] On day 19, 20, and 21, after the treatment with test compound by oral gavage, 30 mins later animals were exposed to 0.5% w/v, 0.5% and 1% Ovalbumin challenge respectively. Control & sham group animals were treated with 0.5% w/v methyl cellulose (vehicle). Sham control groups were sensitized with 10 mg of alum on day 0, 7 & 14 and exposed to saline solution (SAL) with the same nebulization rate on day 19. 20 and 21. Twenty hours after last OVA challenge, airway hyperresponsiveness was measured by whole body plethysmograph against cumulative doses of methacholine challenge (75, 100, 125 & 150 μg/ml), after measuring the airway response, blood samples and BAL fluid was collected. Samples were analysed for total cell count by using neubuear chamber under microscope and differential leukocyte count was done manually.

T1 sequence (Q9JHG7 whole entry): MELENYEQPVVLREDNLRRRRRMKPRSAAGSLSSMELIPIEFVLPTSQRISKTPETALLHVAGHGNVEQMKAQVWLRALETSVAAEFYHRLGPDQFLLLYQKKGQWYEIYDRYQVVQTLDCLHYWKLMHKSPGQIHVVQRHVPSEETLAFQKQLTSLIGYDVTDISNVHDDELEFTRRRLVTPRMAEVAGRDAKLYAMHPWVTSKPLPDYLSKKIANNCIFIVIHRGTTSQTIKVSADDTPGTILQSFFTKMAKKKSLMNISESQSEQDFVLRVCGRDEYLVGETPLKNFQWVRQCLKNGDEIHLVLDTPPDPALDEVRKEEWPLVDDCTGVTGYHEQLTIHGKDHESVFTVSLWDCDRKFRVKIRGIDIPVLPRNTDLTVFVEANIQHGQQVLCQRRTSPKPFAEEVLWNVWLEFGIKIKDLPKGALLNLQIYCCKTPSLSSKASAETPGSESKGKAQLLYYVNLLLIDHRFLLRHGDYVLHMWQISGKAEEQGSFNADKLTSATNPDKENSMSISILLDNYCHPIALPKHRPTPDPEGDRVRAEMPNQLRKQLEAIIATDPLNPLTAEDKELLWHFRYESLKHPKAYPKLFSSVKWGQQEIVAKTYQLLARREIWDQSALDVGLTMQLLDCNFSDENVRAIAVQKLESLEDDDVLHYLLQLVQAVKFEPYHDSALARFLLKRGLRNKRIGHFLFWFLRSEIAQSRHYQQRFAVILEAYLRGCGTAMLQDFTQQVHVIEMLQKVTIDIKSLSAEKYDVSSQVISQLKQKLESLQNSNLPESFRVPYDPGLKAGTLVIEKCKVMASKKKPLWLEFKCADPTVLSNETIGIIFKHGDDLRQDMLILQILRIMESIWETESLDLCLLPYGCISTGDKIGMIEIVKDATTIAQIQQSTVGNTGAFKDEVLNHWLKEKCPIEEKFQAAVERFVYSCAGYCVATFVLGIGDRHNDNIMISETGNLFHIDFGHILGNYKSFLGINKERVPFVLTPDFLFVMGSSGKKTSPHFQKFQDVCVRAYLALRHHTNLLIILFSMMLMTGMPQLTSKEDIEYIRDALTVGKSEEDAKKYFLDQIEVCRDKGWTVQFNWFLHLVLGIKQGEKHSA
T2 sequence (O00329 whole entry): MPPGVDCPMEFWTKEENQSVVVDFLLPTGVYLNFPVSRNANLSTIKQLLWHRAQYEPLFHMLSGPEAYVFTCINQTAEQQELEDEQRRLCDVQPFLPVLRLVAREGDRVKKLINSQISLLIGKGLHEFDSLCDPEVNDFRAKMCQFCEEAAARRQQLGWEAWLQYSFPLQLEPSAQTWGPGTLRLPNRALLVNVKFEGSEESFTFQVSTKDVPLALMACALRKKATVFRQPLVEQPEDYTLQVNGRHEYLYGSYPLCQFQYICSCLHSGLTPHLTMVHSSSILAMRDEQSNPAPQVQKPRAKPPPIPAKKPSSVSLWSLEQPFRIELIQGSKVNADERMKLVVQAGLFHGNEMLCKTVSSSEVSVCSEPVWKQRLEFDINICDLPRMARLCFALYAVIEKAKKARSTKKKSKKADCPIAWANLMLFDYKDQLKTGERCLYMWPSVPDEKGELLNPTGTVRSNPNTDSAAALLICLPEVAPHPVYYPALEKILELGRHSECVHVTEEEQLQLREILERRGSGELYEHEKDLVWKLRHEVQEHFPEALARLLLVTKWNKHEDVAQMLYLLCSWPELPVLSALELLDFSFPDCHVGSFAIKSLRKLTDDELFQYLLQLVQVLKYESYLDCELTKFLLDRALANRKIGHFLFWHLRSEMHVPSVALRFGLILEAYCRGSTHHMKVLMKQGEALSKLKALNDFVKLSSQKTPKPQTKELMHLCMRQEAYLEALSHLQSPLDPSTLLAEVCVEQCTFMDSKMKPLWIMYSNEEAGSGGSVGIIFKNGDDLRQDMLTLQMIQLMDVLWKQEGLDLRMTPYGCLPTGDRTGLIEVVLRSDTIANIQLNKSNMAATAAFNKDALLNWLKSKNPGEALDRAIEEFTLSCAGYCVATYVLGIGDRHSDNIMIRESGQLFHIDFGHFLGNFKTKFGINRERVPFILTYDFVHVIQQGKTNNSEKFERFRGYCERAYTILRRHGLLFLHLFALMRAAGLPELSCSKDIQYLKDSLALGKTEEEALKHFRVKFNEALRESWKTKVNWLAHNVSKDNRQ
T2 sequence (P27986 whole entry partner): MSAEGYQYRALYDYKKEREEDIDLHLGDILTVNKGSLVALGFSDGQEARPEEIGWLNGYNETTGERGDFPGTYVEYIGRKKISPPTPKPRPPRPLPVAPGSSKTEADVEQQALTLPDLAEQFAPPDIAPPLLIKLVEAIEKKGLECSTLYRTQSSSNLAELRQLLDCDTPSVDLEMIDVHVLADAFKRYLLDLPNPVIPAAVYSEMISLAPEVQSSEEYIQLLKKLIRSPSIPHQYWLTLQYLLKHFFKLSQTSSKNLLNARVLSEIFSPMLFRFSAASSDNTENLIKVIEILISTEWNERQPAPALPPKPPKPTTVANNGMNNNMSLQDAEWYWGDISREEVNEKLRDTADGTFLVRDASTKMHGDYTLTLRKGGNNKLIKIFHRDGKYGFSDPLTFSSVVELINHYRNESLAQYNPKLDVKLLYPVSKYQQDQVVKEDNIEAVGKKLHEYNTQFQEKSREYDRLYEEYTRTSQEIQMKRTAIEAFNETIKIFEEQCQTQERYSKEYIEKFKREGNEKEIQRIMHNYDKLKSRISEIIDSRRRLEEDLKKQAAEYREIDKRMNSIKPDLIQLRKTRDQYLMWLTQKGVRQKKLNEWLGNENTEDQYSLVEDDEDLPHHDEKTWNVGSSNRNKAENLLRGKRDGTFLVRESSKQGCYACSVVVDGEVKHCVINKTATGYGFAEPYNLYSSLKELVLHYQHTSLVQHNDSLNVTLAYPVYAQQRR
Sequence of Pi3K γ (P48736 whole entry, canonical isoform): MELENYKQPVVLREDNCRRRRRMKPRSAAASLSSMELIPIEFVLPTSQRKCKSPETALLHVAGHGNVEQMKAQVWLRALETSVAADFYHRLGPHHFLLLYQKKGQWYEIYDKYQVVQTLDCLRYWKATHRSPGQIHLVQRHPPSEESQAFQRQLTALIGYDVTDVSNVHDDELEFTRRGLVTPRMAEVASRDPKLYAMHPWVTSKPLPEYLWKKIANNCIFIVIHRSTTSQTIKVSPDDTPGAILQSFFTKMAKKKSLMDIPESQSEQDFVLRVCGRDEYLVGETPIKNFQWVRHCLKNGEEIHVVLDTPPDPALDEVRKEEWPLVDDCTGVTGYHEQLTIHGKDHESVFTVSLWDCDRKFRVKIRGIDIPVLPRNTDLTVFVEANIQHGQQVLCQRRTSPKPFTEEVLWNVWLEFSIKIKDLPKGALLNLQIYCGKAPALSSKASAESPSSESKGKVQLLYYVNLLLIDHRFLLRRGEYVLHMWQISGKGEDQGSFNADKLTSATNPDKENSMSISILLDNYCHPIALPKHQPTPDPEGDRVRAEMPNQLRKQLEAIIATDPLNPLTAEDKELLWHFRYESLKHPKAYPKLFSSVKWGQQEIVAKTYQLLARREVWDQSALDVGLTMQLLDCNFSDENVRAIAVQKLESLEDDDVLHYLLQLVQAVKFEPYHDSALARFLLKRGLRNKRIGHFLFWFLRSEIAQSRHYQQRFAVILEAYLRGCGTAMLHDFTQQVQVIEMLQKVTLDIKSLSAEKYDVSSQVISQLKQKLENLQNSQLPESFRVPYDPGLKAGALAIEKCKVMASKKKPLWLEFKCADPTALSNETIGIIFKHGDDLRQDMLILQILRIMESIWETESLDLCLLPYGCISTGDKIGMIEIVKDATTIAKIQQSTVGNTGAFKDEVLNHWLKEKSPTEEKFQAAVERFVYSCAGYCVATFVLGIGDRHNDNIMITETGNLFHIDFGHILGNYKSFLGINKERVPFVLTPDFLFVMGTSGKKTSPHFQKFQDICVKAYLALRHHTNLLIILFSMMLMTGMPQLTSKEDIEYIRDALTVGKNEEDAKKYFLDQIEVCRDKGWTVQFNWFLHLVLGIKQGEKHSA

IC50 (PI3K gamma): 22.3 nM | IC50 (PI3K delta): 38.1 nM | IC50 (Pi3K γ): 24.1 nM
SMILES: CC[C@H](Nc1ncnc2[nH]cnc12)c1oc2ccccc2c(=O)c1-c1cccc(F)c1 [Compound A1, (S)-2-(1-(9H-purin-6-ylamino)propyl)-3-(3-fluorophenyl)-4H-chromen-4-one]
ED50 (Female Wistar rats): 6.5 mg/kg | airway hyperresponsiveness against methacholine challenge (male guinea pigs): significant dose dependent reduction | eosinophil infiltration into the bronchoalveolar lavage fluid (male guinea pigs): significant dose dependent reduction

— US11466006B2, “Dual selective PI3 delta and gamma kinase inhibitors” (Rhizen Pharmaceuticals SA, priority 2013, dated 2022)
